Reference: US9580390B2, “Indazole compounds as kinase inhibitors and method of treating cancer with same” (University Health Network, priority 2011, dated 2017)

Experiments:
Assay in all cases: Panel of 270 human kinases (Millipore)
Format in all cases: biochemical
ALK = molecular target: T1, ALK (Homo sapiens, UniProt Q9UM73)
T1 construct: purchased Millipore Corporation
Method: (§1) The inhibitory activity of selected compounds of the invention (A335, A405, A410, A261, A300 and A363) was evaluated against a panel of 270 different human kinase enzymes by Millipore Corporation. The % Inhibition was determined by the formula: % Inhibition=100×(1−(experimental value−background value)/(high activity control−background value)).

Aurora-B = molecular target: T2, Aurora-B (Homo sapiens, UniProt Q96GD4)
T2 construct: purchased Millipore Corporation
Method: as §1

JNK3 = molecular target: T3, JNK3 (Homo sapiens, UniProt P53779)
T3 construct: purchased Millipore Corporation
Method: as §1

MAPK2 = molecular target: T4, MAPK2 (Homo sapiens, UniProt P28482)
T4 construct: purchased Millipore Corporation
Method: as §1

MUSK = molecular target: T5, MUSK (Homo sapiens, UniProt O15146)
T5 construct: purchased Millipore Corporation
T5 sequence (O15146 24-869): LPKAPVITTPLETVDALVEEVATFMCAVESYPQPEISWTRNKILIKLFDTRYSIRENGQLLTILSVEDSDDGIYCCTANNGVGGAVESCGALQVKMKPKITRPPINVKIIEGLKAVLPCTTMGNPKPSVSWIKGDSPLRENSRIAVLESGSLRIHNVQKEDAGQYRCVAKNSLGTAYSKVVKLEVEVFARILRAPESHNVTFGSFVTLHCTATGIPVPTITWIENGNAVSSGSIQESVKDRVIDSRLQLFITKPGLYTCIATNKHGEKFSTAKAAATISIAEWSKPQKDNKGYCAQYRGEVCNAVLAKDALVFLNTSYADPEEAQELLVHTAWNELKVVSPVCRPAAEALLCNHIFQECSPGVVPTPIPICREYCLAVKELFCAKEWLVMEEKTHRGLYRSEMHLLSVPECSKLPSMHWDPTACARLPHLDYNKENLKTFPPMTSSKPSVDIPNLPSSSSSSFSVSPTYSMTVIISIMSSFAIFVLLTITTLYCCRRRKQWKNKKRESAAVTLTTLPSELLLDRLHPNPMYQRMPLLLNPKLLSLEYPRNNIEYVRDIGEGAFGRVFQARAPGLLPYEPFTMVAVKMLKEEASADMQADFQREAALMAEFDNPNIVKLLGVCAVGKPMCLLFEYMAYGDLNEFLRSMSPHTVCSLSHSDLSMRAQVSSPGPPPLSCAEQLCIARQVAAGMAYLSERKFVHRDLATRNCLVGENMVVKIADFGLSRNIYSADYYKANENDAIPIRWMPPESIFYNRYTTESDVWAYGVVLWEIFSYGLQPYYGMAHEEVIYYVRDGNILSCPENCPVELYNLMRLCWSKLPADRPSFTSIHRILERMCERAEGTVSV
Method: as §1

Met(Y1248C) = molecular target: T6, Met(Y1248C) (Homo sapiens, UniProt P08581, Y1230C)
T6 construct: purchased Millipore Corporation
Method: as §1

cKit (V560G) = molecular target: T7, cKit (V560G) (Homo sapiens, UniProt P10721, V560G)
T7 construct: purchased Millipore Corporation
Method: as §1

T3 sequence (P53779 whole entry): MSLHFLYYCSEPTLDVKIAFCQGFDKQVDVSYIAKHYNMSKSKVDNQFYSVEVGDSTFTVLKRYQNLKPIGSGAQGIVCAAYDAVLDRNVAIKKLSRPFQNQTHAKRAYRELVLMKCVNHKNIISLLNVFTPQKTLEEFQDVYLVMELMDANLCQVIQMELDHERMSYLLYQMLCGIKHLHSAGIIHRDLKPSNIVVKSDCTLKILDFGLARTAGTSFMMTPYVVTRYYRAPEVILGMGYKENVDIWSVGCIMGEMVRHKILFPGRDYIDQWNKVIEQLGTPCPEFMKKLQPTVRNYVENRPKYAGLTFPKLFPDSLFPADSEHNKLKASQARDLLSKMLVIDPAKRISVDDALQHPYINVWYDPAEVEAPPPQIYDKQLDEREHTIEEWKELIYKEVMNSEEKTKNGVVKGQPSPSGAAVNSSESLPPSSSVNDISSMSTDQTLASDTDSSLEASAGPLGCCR
T2 sequence (Q96GD4 whole entry): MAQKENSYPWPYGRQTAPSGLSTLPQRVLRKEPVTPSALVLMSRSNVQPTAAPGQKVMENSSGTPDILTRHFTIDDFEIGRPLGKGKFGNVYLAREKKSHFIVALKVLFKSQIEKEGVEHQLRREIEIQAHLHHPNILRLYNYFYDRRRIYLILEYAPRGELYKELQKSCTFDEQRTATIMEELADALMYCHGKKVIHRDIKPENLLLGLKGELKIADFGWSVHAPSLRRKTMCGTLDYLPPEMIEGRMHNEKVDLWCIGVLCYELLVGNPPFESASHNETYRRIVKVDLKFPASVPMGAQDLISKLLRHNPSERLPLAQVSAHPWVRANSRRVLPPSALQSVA
T1 sequence (Q9UM73 19-1620): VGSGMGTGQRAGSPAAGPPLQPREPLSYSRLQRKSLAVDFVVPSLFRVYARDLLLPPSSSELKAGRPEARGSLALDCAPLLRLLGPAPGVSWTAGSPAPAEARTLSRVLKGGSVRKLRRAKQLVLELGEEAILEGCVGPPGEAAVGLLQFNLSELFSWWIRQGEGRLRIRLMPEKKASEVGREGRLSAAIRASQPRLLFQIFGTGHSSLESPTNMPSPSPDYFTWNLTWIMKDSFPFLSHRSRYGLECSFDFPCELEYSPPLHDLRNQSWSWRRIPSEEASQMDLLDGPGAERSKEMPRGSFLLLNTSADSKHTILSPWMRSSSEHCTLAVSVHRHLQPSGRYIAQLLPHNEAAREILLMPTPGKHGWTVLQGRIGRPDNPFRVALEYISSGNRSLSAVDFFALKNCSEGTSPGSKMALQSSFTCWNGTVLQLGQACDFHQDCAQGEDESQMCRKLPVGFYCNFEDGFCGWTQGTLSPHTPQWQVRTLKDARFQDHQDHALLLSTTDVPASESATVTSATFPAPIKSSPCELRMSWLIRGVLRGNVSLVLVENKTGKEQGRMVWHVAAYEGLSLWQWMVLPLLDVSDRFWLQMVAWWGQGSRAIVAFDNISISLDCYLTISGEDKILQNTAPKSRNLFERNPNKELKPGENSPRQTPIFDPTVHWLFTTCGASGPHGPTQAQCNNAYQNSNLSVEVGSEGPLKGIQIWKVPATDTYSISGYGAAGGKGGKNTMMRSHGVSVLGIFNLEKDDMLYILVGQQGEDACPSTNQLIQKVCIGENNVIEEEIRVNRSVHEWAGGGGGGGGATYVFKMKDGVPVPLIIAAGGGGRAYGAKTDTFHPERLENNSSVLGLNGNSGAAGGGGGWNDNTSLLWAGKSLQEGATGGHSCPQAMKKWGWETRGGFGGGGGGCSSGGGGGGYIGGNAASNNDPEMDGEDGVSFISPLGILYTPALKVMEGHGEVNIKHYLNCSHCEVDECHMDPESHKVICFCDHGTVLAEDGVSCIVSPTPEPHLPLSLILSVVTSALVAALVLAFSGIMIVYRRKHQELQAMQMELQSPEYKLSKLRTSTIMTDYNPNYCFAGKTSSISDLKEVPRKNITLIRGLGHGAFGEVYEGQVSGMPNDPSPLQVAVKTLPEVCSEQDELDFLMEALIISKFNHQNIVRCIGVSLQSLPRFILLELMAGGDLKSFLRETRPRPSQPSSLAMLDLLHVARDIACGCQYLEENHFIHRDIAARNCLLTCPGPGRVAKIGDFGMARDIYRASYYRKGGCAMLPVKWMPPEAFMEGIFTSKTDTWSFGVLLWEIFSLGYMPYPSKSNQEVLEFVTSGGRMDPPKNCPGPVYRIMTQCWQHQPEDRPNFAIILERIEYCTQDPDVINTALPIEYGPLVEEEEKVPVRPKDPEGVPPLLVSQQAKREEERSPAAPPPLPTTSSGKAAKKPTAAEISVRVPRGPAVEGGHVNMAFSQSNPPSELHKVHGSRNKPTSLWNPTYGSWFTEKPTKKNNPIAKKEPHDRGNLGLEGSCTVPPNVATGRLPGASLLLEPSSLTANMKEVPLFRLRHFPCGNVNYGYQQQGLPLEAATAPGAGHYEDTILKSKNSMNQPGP
T4 sequence (P28482 whole entry): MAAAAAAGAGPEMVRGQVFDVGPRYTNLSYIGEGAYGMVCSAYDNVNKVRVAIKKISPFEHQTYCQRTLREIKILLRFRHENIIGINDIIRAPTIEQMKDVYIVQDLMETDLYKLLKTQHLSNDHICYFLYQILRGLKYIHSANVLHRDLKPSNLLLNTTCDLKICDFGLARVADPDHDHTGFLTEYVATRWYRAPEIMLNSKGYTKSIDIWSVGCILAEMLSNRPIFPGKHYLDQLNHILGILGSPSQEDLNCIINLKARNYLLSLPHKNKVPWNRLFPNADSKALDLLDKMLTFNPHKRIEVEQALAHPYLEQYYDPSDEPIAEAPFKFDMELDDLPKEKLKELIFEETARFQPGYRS
T7 sequence (P10721 26-976 V560G): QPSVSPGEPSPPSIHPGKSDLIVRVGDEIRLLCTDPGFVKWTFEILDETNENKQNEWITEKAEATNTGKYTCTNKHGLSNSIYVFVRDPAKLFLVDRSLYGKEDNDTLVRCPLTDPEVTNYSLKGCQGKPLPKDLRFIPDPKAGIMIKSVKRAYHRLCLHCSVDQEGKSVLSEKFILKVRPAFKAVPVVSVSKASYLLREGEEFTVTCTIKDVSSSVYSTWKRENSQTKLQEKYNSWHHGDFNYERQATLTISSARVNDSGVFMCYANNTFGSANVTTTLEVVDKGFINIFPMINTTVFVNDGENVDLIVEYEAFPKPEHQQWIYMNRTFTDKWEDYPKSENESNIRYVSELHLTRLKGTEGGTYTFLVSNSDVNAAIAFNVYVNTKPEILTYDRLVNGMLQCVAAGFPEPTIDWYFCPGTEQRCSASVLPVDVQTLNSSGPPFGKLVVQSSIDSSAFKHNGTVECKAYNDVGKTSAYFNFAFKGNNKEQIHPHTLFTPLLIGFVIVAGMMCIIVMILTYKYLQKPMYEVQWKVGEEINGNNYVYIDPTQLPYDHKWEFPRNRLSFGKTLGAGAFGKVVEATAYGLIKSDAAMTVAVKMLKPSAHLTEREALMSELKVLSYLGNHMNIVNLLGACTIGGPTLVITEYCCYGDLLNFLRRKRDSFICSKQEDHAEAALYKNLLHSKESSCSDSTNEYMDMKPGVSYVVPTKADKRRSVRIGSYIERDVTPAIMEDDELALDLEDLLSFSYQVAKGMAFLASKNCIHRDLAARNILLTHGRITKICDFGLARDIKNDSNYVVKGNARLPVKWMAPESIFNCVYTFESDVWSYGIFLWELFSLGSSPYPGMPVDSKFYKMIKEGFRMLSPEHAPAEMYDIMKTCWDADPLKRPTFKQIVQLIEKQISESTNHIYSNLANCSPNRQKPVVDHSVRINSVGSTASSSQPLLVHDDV
T6 sequence (P08581 25-1408 isoform P08581-2 Y1248C limits assumed): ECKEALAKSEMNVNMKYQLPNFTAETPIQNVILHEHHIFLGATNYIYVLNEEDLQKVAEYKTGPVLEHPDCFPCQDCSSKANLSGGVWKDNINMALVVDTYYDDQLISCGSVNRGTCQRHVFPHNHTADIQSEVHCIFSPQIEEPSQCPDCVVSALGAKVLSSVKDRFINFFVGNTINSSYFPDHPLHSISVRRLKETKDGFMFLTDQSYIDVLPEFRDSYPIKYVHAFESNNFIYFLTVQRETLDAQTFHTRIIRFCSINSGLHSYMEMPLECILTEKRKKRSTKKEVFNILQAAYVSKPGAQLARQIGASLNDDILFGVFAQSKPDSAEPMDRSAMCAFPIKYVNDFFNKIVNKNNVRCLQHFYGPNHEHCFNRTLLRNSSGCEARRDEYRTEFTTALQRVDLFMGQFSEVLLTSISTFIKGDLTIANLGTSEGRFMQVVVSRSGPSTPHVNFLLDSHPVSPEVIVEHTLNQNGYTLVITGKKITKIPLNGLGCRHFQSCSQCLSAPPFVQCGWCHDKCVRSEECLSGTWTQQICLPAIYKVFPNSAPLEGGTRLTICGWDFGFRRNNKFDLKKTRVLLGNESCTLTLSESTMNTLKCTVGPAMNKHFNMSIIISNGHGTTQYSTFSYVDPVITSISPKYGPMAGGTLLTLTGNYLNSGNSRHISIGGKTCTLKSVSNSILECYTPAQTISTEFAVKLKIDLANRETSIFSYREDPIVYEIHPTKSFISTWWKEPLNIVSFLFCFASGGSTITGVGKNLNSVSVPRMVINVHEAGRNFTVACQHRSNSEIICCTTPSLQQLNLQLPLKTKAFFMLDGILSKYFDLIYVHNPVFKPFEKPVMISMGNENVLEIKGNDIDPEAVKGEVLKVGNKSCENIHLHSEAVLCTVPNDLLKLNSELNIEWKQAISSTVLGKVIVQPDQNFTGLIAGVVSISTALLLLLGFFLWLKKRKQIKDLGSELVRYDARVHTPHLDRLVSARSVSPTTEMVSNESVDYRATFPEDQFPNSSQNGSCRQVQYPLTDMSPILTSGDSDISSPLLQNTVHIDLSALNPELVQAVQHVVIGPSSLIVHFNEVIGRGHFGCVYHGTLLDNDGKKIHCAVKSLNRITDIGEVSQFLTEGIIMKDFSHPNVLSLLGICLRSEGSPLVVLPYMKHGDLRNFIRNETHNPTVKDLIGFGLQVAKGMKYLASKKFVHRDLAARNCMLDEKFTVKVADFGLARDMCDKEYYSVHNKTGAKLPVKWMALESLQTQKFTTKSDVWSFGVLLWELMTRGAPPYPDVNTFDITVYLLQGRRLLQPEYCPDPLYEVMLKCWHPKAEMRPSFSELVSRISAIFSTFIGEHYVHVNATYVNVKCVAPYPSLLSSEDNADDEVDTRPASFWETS

SMILES | inhibition at 1 µM (ALK) | inhibition at 1 µM (Aurora-B) | inhibition at 1 µM (JNK3) | inhibition at 1 µM (MAPK2) | inhibition at 1 µM (MUSK) | inhibition at 1 µM (Met(Y1248C)) | inhibition at 1 µM (cKit (V560G))
CC(C)[C@H](NC(=O)c1ccc2[nH]nc(-c3ccc(OC4CC5CCC(C4)N5C4COC4)cc3)c2c1)c1ccccc1Cl (some centres unmarked) [Example A335] | 7% | 87% | 85% | 0% | 91% | 42% | 66%
CC(C)C[C@@H](NC(=O)c1ccc2[nH]nc(-c3ccc(N4CCN(C5COC5)CC4)cc3)c2c1)c1ccccc1Cl [Example A300, (R)-N-(1-(2-chlorophenyl)-3-methylbutyl)-3-(4-(4-(oxetan-3-yl)piperazin-1-yl)phenyl)-1H-indazole-5-carboxamide] | 0% | 69% | 48% | 5% | 54% | 40% | 76%
